Columns and labels:
Format in all cases: in vivo
[1] = system: Alopecurus myosuroides (ALOMY); assay: Example A pre-emergence herbicidal activity; conditions: rate 250 g/ha, evaluated 19 or 20 days later
Protocol: (§1) Seeds of a variety of test species were sown in standard soil in pots. After cultivation for one day (pre-emergence) or after 10 days cultivation (post-emergence) under controlled conditions in a glasshouse, the plants were sprayed with an aqueous spray solution derived from the formulation of the technical active ingredient in 0.6 ml acetone and 45 ml formulation solution containing 10.6% Emulsogen EL (Registry number 61791-12-6), 42.2% N-methylpyrrolidone, 42.2% dipropylene glycol monomethyl ether (Registry number 34590-94-8) and 0.2% X-77 (Registry number 11097-66-8). The test plants were then grown in a greenhouse under optimum conditions until, 14 or 15 days later for post-emergence and 19 or 20 days for pre-emergence, the test was evaluated (100=total damage to plant; 0=no damage to plant). Alopecurus myosuroides (ALOMY), Avena fatua (AVEFA), Lolium perenne (LOLPE), Setaria faberi (SETFA), Digitaria sanguinalis (DIGSA), Echinochloa crus-galli (ECHCG)

Avena fatua (AVEFA) [2] = assay: Example A pre-emergence herbicidal activity; conditions: rate 250 g/ha, evaluated 19 or 20 days later
Protocol: as §1

[3] = system: Digitaria sanguinalis (DIGSA); assay: Example A pre-emergence herbicidal activity; conditions: rate 250 g/ha, evaluated 19 or 20 days later
Protocol: as §1

[4] = system: Echinochloa crus-galli (ECHCG); assay: Example A pre-emergence herbicidal activity; conditions: rate 250 g/ha, evaluated 19 or 20 days later
Protocol: as §1

Lolium perenne (LOLPE) [5] = assay: Example A pre-emergence herbicidal activity; conditions: rate 250 g/ha, evaluated 19 or 20 days later
Protocol: as §1

Setaria faberi (SETFA) [6] = assay: Example A pre-emergence herbicidal activity; conditions: rate 250 g/ha, evaluated 19 or 20 days later
Protocol: as §1

[7] = system: Alopecurus myosuroides (ALOMY); assay: Example A post-emergence herbicidal activity; conditions: rate 125 g/ha, evaluated 14 or 15 days later
Protocol: as §1

Avena fatua (AVEFA) [8] = assay: Example A post-emergence herbicidal activity; conditions: rate 125 g/ha, evaluated 14 or 15 days later
Protocol: as §1

[9] = system: Digitaria sanguinalis (DIGSA); assay: Example A post-emergence herbicidal activity; conditions: rate 125 g/ha, evaluated 14 or 15 days later
Protocol: as §1

[10] = system: Echinochloa crus-galli (ECHCG); assay: Example A post-emergence herbicidal activity; conditions: rate 125 g/ha, evaluated 14 or 15 days later
Protocol: as §1

Lolium perenne (LOLPE) [11] = assay: Example A post-emergence herbicidal activity; conditions: rate 125 g/ha, evaluated 14 or 15 days later
Protocol: as §1

Setaria faberi (SETFA) [12] = assay: Example A post-emergence herbicidal activity; conditions: rate 125 g/ha, evaluated 14 or 15 days later
Protocol: as §1

SMILES	Pre-Emergence Activity ALOMY (100=total damage to plant; 0=no damage to plant) [1]	Pre-Emergence Activity AVEFA (100=total damage to plant; 0=no damage to plant) (Avena fatua (AVEFA) [2])	Pre-Emergence Activity DIGSA (100=total damage to plant; 0=no damage to plant) [3]	Pre-Emergence Activity ECHCG (100=total damage to plant; 0=no damage to plant) [4]	Pre-Emergence Activity LOLPE (100=total damage to plant; 0=no damage to plant) (Lolium perenne (LOLPE) [5])	Pre-Emergence Activity SETFA (100=total damage to plant; 0=no damage to plant) (Setaria faberi (SETFA) [6])	Post-Emergence Activity ALOMY (100=total damage to plant; 0=no damage to plant) [7]	Post-Emergence Activity AVEFA (100=total damage to plant; 0=no damage to plant) (Avena fatua (AVEFA) [8])	Post-Emergence Activity DIGSA (100=total damage to plant; 0=no damage to plant) [9]	Post-Emergence Activity ECHCG (100=total damage to plant; 0=no damage to plant) [10]	Post-Emergence Activity LOLPE (100=total damage to plant; 0=no damage to plant) (Lolium perenne (LOLPE) [11])	Post-Emergence Activity SETFA (100=total damage to plant; 0=no damage to plant) (Setaria faberi (SETFA) [12])
Cc1[se]c(-c2ccc(Cl)cc2)nc1C1C(=O)[C@@H]2CC[C@@H](C2)C1=O (some centres unmarked) [Compound T1, 3-[2-(4-chlorophenyl)-5-methylselenazol-4-yl]bicyclo[3.2.1]octane-2,4-dione]	60	20	60	60	80	70	70	70	80	100	30	90
Cc1sc(-c2ccc(Br)cc2)nc1C1C(=O)[C@@H]2CC[C@@H](C2)C1=O (some centres unmarked) [Compound T15]	90		100	100	100	100	90	90	100	70	50	100
Cc1sc(-c2ccc(Cl)nc2)nc1C1C(=O)[C@@H]2CC[C@@H](C2)C1=O (some centres unmarked) [Compound T16]	10	20	80	70	20	80	20	40	70	50	20	60
Cc1sc(-c2ccc(Cl)cc2)nc1C1C(=O)[C@@H]2CC[C@@H](C2)C1=O (some centres unmarked) [Compound T17]	100	100	100	100	100	100	70	50	80	90	40	80
COc1ccc(-c2nc(C3C(=O)[C@@H]4CC[C@@H](C4)C3=O)c(C)s2)cn1 (some centres unmarked) [Compound T18]	0	0	30	20	0	20	40	30	60	50	20	60
CCc1sc(-c2ccc(Cl)cc2)nc1C1C(=O)[C@@H]2CC[C@@H](C2)C1=O (some centres unmarked) [Compound T19, 3-[2-(4-chlorophenyl)-5-ethylthiazol-4-yl]bicyclo[3.2.1]octane-2,4-dione]	100	100	100	100	100	100	100	100	100	100	80	100
Cc1sc(-c2ccc(Cl)cc2)cc1C1C(=O)[C@@H]2CC[C@@H](C2)C1=O (some centres unmarked) [Compound T23]	30	50	0	0	0	0	80	70	90	90	70	100

From patent publication US8598365B2, “Herbicides” (Syngenta Limited, priority 2007, dated 2013)
